Measured values published in PMC10945555, “Improving Activity of New Arylurea Agents against Multidrug-Resistant and Biofilm-Producing Staphylococcus epidermidis” (ACS Medicinal Chemistry Letters, 2024).

Key:
[1] = tested on: biofilm-producing Staphylococcus epidermidis strains; test: Biofilm eradication (MBEC Assay Kit); assay type: cell-based
horse red blood cells = test: Hemolytic activity assay
Protocol: 2.3.3 Hemolytic activity assay
The hemolytic properties of tested compound were evaluated according to previously reported procedure.6 Defibrinated horse red blood cells purchased from Thermo Fisher Scientific (Germany) were washed with PBS (3000 rpm, 10 min at 4 °C) for three times followed by PBS dilution to obtain a 8% suspension. Then, 100 μL of the resulting suspensions […]
were treated with 100 μL of tested compound at the final concentration of 200 μM, and incubated at 37 °C for 1 h. Triton X-100 (2%) and PBS were used as positive and negative controls, respectively. After centrifugation at 3000 rpm for 3 min, 100 μL of the supernatants were transferred to a 96 well microtiter plate and the hemoglobin release was determined in a SpectraMax iD3 reader (Molecular Devices) by absorption at 540 nm. […]

[2] = tested on: Staphylococcus epidermidis ATCC 35984; test: MIC, broth microdilution, MDR/BPSE reference strain; assay type: cell-based
Excerpt: These strains included susceptible, multidrug-resistant, and biofilm-producing strains of S. epidermidis and S. aureus (MSSE, MDR/BPSE, and MDR/BPSA, respectively). The cornerstone antibiotic linezolid served as a positive control (Table 1). The impact of structural modifications at the aryloxy fragment and the aromatic moiety bound to the propyl linker on the inhibitory activity was initially investigated. […] Further optimization focused on evaluating the impact of the type of substituent and its position on the arylsulfonamide fragment’s activity.
2 Biological assay protocols
Microbiological tests were carried out under aseptic conditions in a laminar chamber of the 2nd […]
(BioTectum 1.2, Alchem Poland). The assessment of antimicrobial activity was carried out for final compounds in the form of free bases, soluble in DMSO (Merck, Germany), at the initial […]
concentration of 1 mg/mL. […]
were provided by Cayman Chemical, USA.
The activity of all newly synthesized compounds was tested in vitro on a panel of selected reference strains from the American Type Culture Collection (ATCC) of Gram-positive […]
2.2 Effect of evaluated compounds on planktonic cells
The susceptibility of three reference bacterial strains (Staphylococcus epidermidis ATCC […]
Table S1) and 81 clinical MDR S. epidermidis (Table S2) to the tested compounds was assessed by determining the MIC value (Minimal Inhibitory Concentration) by microdilution in a liquid medium in 96-well flat-bottom cell culture plates (Nest Biotechnology Scientific, USA). The antibacterial properties of the compo unds were tested in the concentration range from 50 µg/mL to 0.1 µg/mL by making a series of double dilutions of the compound in liquid Mueller -Hinton II Broth Cation Adjusted (MHB II, BBL TM, USA) according to the European Committee on […]
Antimicrobial Susceptibility Testing guidelines (EUCAST).2,3 The determinations were performed twice. The MIC50 and MIC90 values were determined for each of the tested

Structure (SMILES): O=S(=O)(NC1CCN(CCC(Oc2ccc(C(F)(F)F)cc2)c2ccccc2)CC1)c1cccc(Cl)c1 (stereo not shown) [Compound 12]
- MBEC ([1]; S. epidermidis ATCC 35984 (Table S4)): 31.25 µg/mL
- MBEC50 ([1]; Table S4 strains): 125 µg/mL
- MBEC ([1]; clinical strain 1 (Table S4)): 125 µg/mL
- MBEC ([1]; clinical strain 2 (Table S4)): 125 µg/mL
- MBEC ([1]; clinical strain 3 (Table S4)): 250 µg/mL
- MBEC ([1]; clinical strain 4 (Table S4)): 125 µg/mL
- MBEC ([1]; clinical strain 5 (Table S4)): 125 µg/mL
- MBEC ([1]; clinical strain 6 (Table S4)): 125 µg/mL
- MBEC ([1]; clinical strain 7 (Table S4)): 125 µg/mL
- MBEC ([1]; clinical strain 8 (Table S4)): 62.5 µg/mL
- MBEC ([1]; clinical strain 9 (Table S4)): 250 µg/mL
- MBEC ([1]; clinical strain 11 (Table S4)): 125 µg/mL
- MBEC ([1]; clinical strain 12 (Table S4)): 125 µg/mL
- MBEC ([1]; clinical strain 13 (Table S4)): 62.5 µg/mL
- MBEC ([1]; clinical strain 15 (Table S4)): 125 µg/mL
- MBEC ([1]; clinical strain 16 (Table S4)): 62.5 µg/mL
- MBEC ([1]; clinical strain 17 (Table S4)): 62.5 µg/mL
- MBEC ([1]; clinical strain 19 (Table S4)): 31.25 µg/mL
- MBEC ([1]; clinical strain 21 (Table S4)): 125 µg/mL
- MBEC ([1]; clinical strain 22 (Table S4)): 125 µg/mL
- MBEC ([1]; clinical strain 23 (Table S4)): 31.25 µg/mL
- MBEC ([1]; clinical strain 25 (Table S4)): 31.25 µg/mL
- MBEC ([1]; clinical strain 26 (Table S4)): 250 µg/mL
- MBEC ([1]; clinical strain 27 (Table S4)): 250 µg/mL
- MBEC ([1]; clinical strain 28 (Table S4)): 125 µg/mL
- MBEC ([1]; clinical strain 29 (Table S4)): 125 µg/mL
- MBEC ([1]; clinical strain 30 (Table S4)): 125 µg/mL
- MBEC ([1]; clinical strain 33 (Table S4)): 125 µg/mL
- MBEC ([1]; clinical strain 35 (Table S4)): 125 µg/mL
- MBEC ([1]; clinical strain 36 (Table S4)): 125 µg/mL
- MBEC ([1]; clinical strain 37 (Table S4)): 125 µg/mL
- MBEC ([1]; clinical strain 39 (Table S4)): 31.25 µg/mL
- MBEC ([1]; clinical strain 40 (Table S4)): 125 µg/mL
- MBEC ([1]; clinical strain 41 (Table S4)): 125 µg/mL
- MBEC ([1]; clinical strain 42 (Table S4)): 125 µg/mL
- MBEC ([1]; clinical strain 43 (Table S4)): 250 µg/mL
- MBEC ([1]; clinical strain 44 (Table S4)): 31.25 µg/mL
- MBEC ([1]; clinical strain 45 (Table S4)): 125 µg/mL
- MBEC ([1]; clinical strain 46 (Table S4)): 125 µg/mL
- MBEC ([1]; clinical strain 47 (Table S4)): 62.5 µg/mL
- MBEC ([1]; clinical strain 49 (Table S4)): 31.25 µg/mL
- MBEC ([1]; clinical strain 51 (Table S4)): 250 µg/mL
- MBEC ([1]; clinical strain 55 (Table S4)): 125 µg/mL
- MBEC ([1]; clinical strain 58 (Table S4)): 125 µg/mL
- MBEC ([1]; clinical strain 59 (Table S4)): 125 µg/mL
- MBEC ([1]; clinical strain 65 (Table S4)): 125 µg/mL
- MBEC ([1]; clinical strain 66 (Table S4)): 125 µg/mL
- MBEC ([1]; clinical strain 67 (Table S4)): 125 µg/mL
- MBEC ([1]; clinical strain 70 (Table S4)): 250 µg/mL
- MBEC ([1]; clinical strain 73 (Table S4)): 31.25 µg/mL
- MBEC ([1]; clinical strain 74 (Table S4)): 125 µg/mL
- MBEC ([1]; clinical strain 75 (Table S4)): 31.25 µg/mL
- MBEC ([1]; clinical strain 78 (Table S4)): 31.25 µg/mL
- MBEC ([1]; clinical strain 79 (Table S4)): 31.25 µg/mL
- %hem (hemolytic activity) (horse red blood cells; 200 μM, 1 h, n = 3): 0.48%
- lysis of erythrocytes (horse red blood cells; concentrations up to 200 μM): None of them caused lysis of erythrocytes
- increase of activity against MDR/BPSE compared to hit I [2]: up to 8 fold
- MIC ([2]; Staphylococcus epidermidis, ATCC35984, read-out: MIC MDR/BPSE, Staphylococcus epidermidis ATCC 35984): ≤ 0.8 µg/mL
